According to patent publication US11471478B2, “Use of cyclodextrins in diseases and disorders involving phospholipid dysregulation” (priority 2017, dated 2022):
pIC50: −log10 of the molar value. Values joined by “and” are separate entries in the source; they are usually repeats but may differ in a detail not shown here. Equal values may be shown once. Read-outs that look alike come from different tables or passages of the source.

Legend:
[1] = tested on: MDA-MB-231 breast cancer cells; assay: NSG mice injected with human MDA-MB-231 breast cancer cells; format: in vivo
Experimental: NSG mice (NOD.Cg-Prkdcscid Il2rgtm1Wjl/SzJ, strain #005557 (10 wk old) were obtained from Jackson Laboratories (Bar Harbor, Me.), housed in isolated quarters, and fed with autoclaved water and food.
An MDA-MB-231 cell line was obtained (ATCC) and kept frozen in liquid nitrogen. Upon start of culture, cells were thawed (1.5 min in 37° C. water) and transferred to DMEM/F-12 supplemented with 5% FBS, 2 mM L-glutamine, 1 mM sodium pyruvate, and 0.02 mM non-essential amino acids. Cells were grown to several millions in 60 mm dishes at 70-80% confluence. Before injection, cells were briefly rinsed twice in PBS followed by Versene (EDTA, Invitrogen) and placed on ice with excess phosphate-buffered saline and phenol red-free matrigel basement membrane extract to a concentration of about 15 mg/mL matrigel. 100 μL cell mixture (20,000 cells or saline only) were injected into the lactiferous duct of the 3rd or 4th mammary glands under brief isofluorane anesthesia. Groups of 15 mice each were injected IP with 800 mg/kg of HP-α-CD, HP-β-CD per week (over four days, Mon, Tue, Thu, Fri), or saline (control) for six weeks. Size of the primary tumor was measured weekly.
Breast tissue were palpated and measured twice a week with a micro-metric analytical device scaled to 1 mm precision. Mice were weighed weekly on a digital scale (0.1 g precision).
At the end of the study period, mice were anaesthetized with isofluorane with 1× phosphate-buffered saline (PBS) and subsequently with 4% formaldehyde in PBS. Tissue from lung and liver were removed and fixated in formalin for microscopic examination. Metastases were visualized and counted by tissue embedding in paraffin and sectioning with immunohistochemistry and histological stain (H&E) and immunostained with anti-HLA antibody. After blocking for 1 h with BSA (5%, frac V), the anti-HLA was incubated at 4° C. overnight, washed for 1 h in PBS, then incubated with biotinylated anti-mouse IgG for 1 h at room temperature. After washing with PBS, metastases were detected on the slide using Envision (Dako).
After blood collection, whole blood samples were centrifuged (at 10,000 m/s^2 for 15 min and then at 100,000 m/s^2 for 10 min), and plasma was isolated. The samples were stored at −80° C. until analysis.
Prior to analysis (30 min), samples and assay reagents were equilibrated to room temperature. The samples were run at a 1:4 dilution and quantified in duplicate using a multi-plex mouse panel for quantification of IL-1β, IL-18, IL-6, IL-8, IL-17A, and GM-CSF (Bio-Plex Pro assays, Bio-Rad Laboratories) on a Luminex Bio-Plex 200 System (Bio-Rad Laboratories).

rats [2] = conditions: cited from earlier work
SwN2a cells = conditions: cited from earlier work
[3] = cited from earlier work
[4] = long-term parenteral, 200 mg/kg; cited from earlier work
[5] = cited from earlier work; for Permitted Daily Exposure (PDE) threshold, parenteral: CHMP 2014; for Permitted Daily Exposure (PDE) threshold, parenteral, revised: Oct. 9, 2017
children with NPC = conditions: doses of up to 1000 mg/kg/d; cited from earlier work
whole blood = conditions: cited from earlier work
[6] = parenteral, 12 g twice daily for 15 days; cited from earlier work
[7] = cited from earlier work; remark: listed apart in the source
Tg19959 mice = conditions: four months of subcutaneous administration; cited from earlier work
BBB = conditions: cited from earlier work; for Transport across BBB: 2 h
cats = conditions: doses of 4-8 g/kg; cited from earlier work
[8] = tested on: MDA-MB 231 and MCF-7 human breast epithelial cell lines; assay: Wound healing / gap closure migration assay; format: cell-based; conditions: 2 h treatment, MDA-MB 231 and MCF-7
Experimental: Published results have shown that β-CD inhibits human MDA-MB 231 cell migration (Guerra F S, Sampaio LdS, et al. (2016) Translational Medicine Communications 1:3). This inhibition was attributed to the ability of β-CD to “deplete cholesterol”. β-CD, however, depletes also phospholipids. […] Cells were cultured in 24-well culture plates (Cytoselect CBA-120, 0.9 mm wound healing/gap closure migration assay) for 24 h with wound healing insert in place. Cells were then treated for 2 h with HP-β-CD, HP-α-CD, or control. Protocol: Warm up the 24-well plate (CBA-120, Cell BioLabs Inc.) with 0.9 mm CytoSelect Wound Healing Inserts at room temperature for 10 min. Using sterile forceps, orient the desired number of inserts in the plate wells with their “wound field” aligned in the same direction. […] Add 500 μL of cell suspension to each well by carefully inserting the pipette tip through the open end at the top of the insert. For optimal cell dispersion, add 250 μL of cell suspension to either side of the open ends at the top of the insert. Incubate cells in a cell culture incubator for 12-24 hours. Carefully remove the insert from the well to begin the wound healing assay. Use sterile forceps to grab and lift the insert slowly from the plate well. Slowly aspirate and discard the media from the wells. Wash wells with media to remove dead cells and debris. Finally, add media to wells to keep cells hydrated. Repeat wash if wells still have debris or unattached cells. When washing is complete, add media with FBS and/or compounds to continue cell culture and wound healing process. Agents that inhibit or stimulate cell migration can be added directly to the wells. Incubate cells in a cell culture incubator (2 hours) and then wash cells with PBS and then add fresh media without compounds. Incubate 12-24 hours before wash and fixing. Remove the fixation solution and add 400 μL of Cell Stain Solution to each well. Allow the stain to incubate with the cells for 15 minutes at room temperature. Aspirate and discard the solution. Carefully wash each stained well 3× with deionized water. Discard washes and allow cells to dry at room temperature. Cells that migrated into the wounded area or protruded from the border of the wound were visualized and photographed under an inverted microscope. Determine the surface area of the defined wound area: Total Surface Area=0.9 mm×length. Determine the surface area of the migrated cells into the wound area: Migrated Cell Surface Area=length of cell migration (mm)×2× length. Percent Closure (%)=Migrated Cell Surface Area/Total Surface Area×100 (see FIG. 36)

[9] = cited from earlier work; remark: listed apart in the source
[10] = cited from earlier work; remark: listed apart in the source
keratinocytes = conditions: cited from earlier work
[11] = rats, suppositories containing triglycerides (Witepsol H5); cited from earlier work
mice/rats = conditions: in vivo; cited from earlier work
[12] = 2.1% α-CD added to Western diet; cited from earlier work
erythrocytes [13] = conditions: cited from earlier work
[14] = tested on: fibroblasts of lysosomal storage diseases; conditions: about 6 mM α-CD, about 8 mM HP-β-CD; cited from earlier work
rats [15] = conditions: s.c. single dose 0.100 g/kg; cited from earlier work
rats [16] = conditions: cited from earlier work; remark: listed apart in the source
[17] = cited from earlier work; remark: listed apart in the source
erythrocytes [18] = conditions: cited from earlier work; remark: listed apart in the source
rats [19] = conditions: cited from earlier work; remark: listed apart in the source
[20] = IP 800 mg/kg per week for six weeks

For `CC(O)COC[C@H]1O[C@@H]2O[C@H]3[C@H](O)[C@@H](O)[C@@H](O[C@H]4[C@H](O)[C@@H](O)[C@@H](O[C@H]5[C@H](O)[C@@H](O)[C@@H](O[C@H]6[C@H](O)[C@@H](O)[C@@H](O[C@H]7[C@H](O)[C@@H](O)[C@@H](O[C@H]8[C@H](O)[C@@H](O)[C@@H](O[C@H]1[C@H](O)[C@H]2O)O[C@@H]8COCC(C)O)O[C@@H]7COCC(C)O)O[C@@H]6COCC(C)O)O[C@@H]5COCC(C)O)O[C@@H]4COCC(C)O)O[C@@H]3COCC(C)O` (stereo partly drawn) [HP-β-CD, hydroxypropyl-beta-cyclodextrin], the “Tumor volume, median” value [1, 20] was 378 mm3, the “effect on tumor volume” value [1, 20] was “effective” and the “plasma cytokines (IL-1β, IL-18, IL-6, IL-8, IL-17A, GM-CSF) versus Vehicle” value ([1]; conventional 0.05 level) was “significant in four other markers (not in IL-8)”. The “mice that did not develop lung metastases” value ([1]; groups of 15 mice) was 3 mice, the mice who died ([1]; groups of 15 mice) was “two” and the “i.v. toxicity, 1 g/kg daily” value (rats [2]; rat, in vivo, iv) was “no signs ^6)”. For the same compound, the “level of membrane cholesterol” value (SwN2a cells) was “reduced”, the “levels of Aβ42” value (SwN2a cells) was “dramatically lowered” and the Solubility in water [3] was >600 g/l and >600 ^2) g/l. For the same compound, the “bone mineral density (BMD)” value [4] was “decrease bone mineral density (BMD)”, the “Permitted Daily Exposure (PDE) threshold, parenteral” value [5] was 10 mg/kg/day and the “Permitted Daily Exposure (PDE) threshold, parenteral, revised” value [5] was 200 mg/kg/day. For the same compound, the tolerability (children with NPC) was “well tolerated”, the “whole blood TD50” value (whole blood) was 9 mM/L and the side effects [6] was “No side effects were observed”. For the same compound, the “i.v. toxicity, 500 mg/kg” value [7] was “no damage”, the “spatial learning and memory deficits” value (Tg19959 mice) was “significantly improved spatial learning and memory deficits” and the “Transport across BBB” value (BBB; 1 mM) was 6.6 (1 mM) %. The BBB breakdown (BBB) was 2.5 mM, the “toxicity on the BBB model” value (BBB) was “similarly safe” and the hearing (cats) was “causes permanent hearing loss”. The “cell migration / wound closure, concentration dependence” value [8] was “migration decreased with higher concentration”, the “excreted after i.v. unchanged in urine” value [9] was ~90% and the “half-life (t1/2) after i.v. in rats” value [10] was 20 min. For the same compound, the “oral absorption in rats” value [10] was ≤3%, the “caspase-dependent apoptotic cell death” value (keratinocytes) was “not” and the rectal absorption [11] was 26%. For the same compound, the “LD50 i.v./i.p. in mice/rats” value (mice/rats) was 10000 mg/kg.

For `OC[C@H]1O[C@@H]2O[C@H]3[C@H](O)[C@@H](O)[C@@H](O[C@H]4[C@H](O)[C@@H](O)[C@@H](O[C@H]5[C@H](O)[C@@H](O)[C@@H](O[C@H]6[C@H](O)[C@@H](O)[C@@H](O[C@H]7[C@H](O)[C@@H](O)[C@@H](O[C@H]1[C@H](O)[C@H]2O)O[C@@H]7CO)O[C@@H]6CO)O[C@@H]5CO)O[C@@H]4CO)O[C@@H]3CO` [α-CD, alpha-cyclodextrin], the “decrease of plasma phospholipids” value [12] is listed as 17.5%, the reduction of phospholipids (erythrocytes [13]; 10 mM, FIG. 3) is listed as 30% and the extraction of cholesterol (erythrocytes [13]) is listed as “negligible even at hemolytic concentrations”. For the same compound, the “i.v. toxicity, 1 g/kg daily” value (rats [2]; 1 g/kg daily) was 1 died @ 2 d, the “reduction of lysosomal storage” value [14] was “more effective in reducing lysosomal storage than about 8 mM HP-β-CD” and the “Nephrosis (light microscopy)” value (rats [15]) was 0.100 no changes. For the same compound, the “Permitted Daily Exposure (PDE) threshold, parenteral” value [5] was 0.02 mg/kg/day, the “Permitted Daily Exposure (PDE) threshold, parenteral, revised” value [5] was 200 mg/kg/day and the Nephrosis/Death (rats [16]; s.c. daily doses 0.100 g/kg) was 0.100 no nephrosis. For the same compound, the Nephrosis (rats [16]; s.c. daily doses 1.000 g/kg) was 1.000 all had severe nephrosis,, the Death (rats [16]; s.c. up to 7 daily doses of 1.000 g/kg) was “one rat died (after 2 days)” and the “whole blood TD50” value (whole blood) was 11 mM/L. For the same compound, the “found in urine within 6-8 h post oral administration” value [17] was 1.6% and 2.0%, the “Transport across BBB” value (BBB; 0.5 mM) was 21.5 (0.5 mM) % and the “toxicity on the BBB model” value (BBB) was “more toxic”. The “excreted after i.v. unchanged in urine” value [9] was ~90%, the hemolytic activity (erythrocytes [18]; comparison between cyclodextrins) was “lower than that of both β-CD and HP-β-CD” and the pIC50 (erythrocytes [18]; read-out: hemolytic IC50) was 1.80. For the same compound, the “half-life (t1/2) after i.v. in rats” value [10] was 25 min, the “oral absorption in rats” value [10] was 2-3% and the “caspase-dependent apoptotic cell death” value (keratinocytes) was “not”. The “LD50 with bolus i.v. injections” value (rats [19]) was 1000 mg/kg and the “LD50 i.v./i.p. in mice/rats” value (mice/rats) was 500 to 1000 mg/kg.
